Tested on: β-sitosterol β-D-glucoside (BSSG) model
Assay: BSSG-induced Parkinson's disease model in rats, 10-month study
Type: in vivo, Male Sprague Dawley rats
Source text: Increased intestinal permeability may lead to a leakage of various substances (such as bacterial toxins and xenobiotics), that are normally unable to cross the gut wall, from the intestine into the body proper, which may trigger synthesis of misfolded alpha-synuclein in the enteric wall and its transfer to the brain via n. vagus. The increased intestinal permeability is a typical consequence of epithelial dysfunction caused by all sorts of enteric inflammation. Therefore, induction of the inflammatory process may be used for setting of disease models. […] When fed to rodents, cycad flour triggers a progressive development of neurological deficits, with behavioral and cellular features that closely approximate those observed in patients. Besides neurotoxic properties, BSSG directly interacts with epithelium. It loosens tight junctions in mucosa via increase of intracellular calcium levels and thus increases permeability of epithelium.
Male Sprague Dawley rats were used in a study performed during 10 months. The animals were put on the baseline diet consisting of BSSG, 3 mg/day, 5 doses weekly p.o. in Month 1 to Month 4. […]
The observed parameters: • 1. Quantitative analysis of misfolded α-synuclein in substantia nigra lysate • 2. Quantitative analysis of misfolded α-synuclein in intestinal lysate • 3. Quantitative analysis of misfolded α-synuclein in olfactory bulb lysate • 4. […]
Final analysis at Month 10 to investigate neurodegenerative disease progression: after in vivo tests (locomotion, coordination, and cognitive) a subgroup of animals in each experimental group is sacrificed. […] In addition inflammatory markers such as TNF-α, IL-6, etc. in brain section samples and serum are measured.
In order to evaluate the overall efficacy of rebamipide in Parkinson's disease a Cumulative PD Score was calculated. […]

## O=C(NC(Cc1cc(=O)[nH]c2ccccc12)C(=O)O)c1ccc(Cl)cc1 (stereo not drawn) [Rebamipide, 2-[(4-chlorobenzoyl)amino]-3-(2-oxo-1H-quinolin-4-yl)propanoic acid]
Rebamipide 30 or 200 mg/kg/day p.o. in feed, BSSG 3 mg/day, histological analysis, preliminary results
  alpha-synuclein aggregates in comparison with the placebo group: reduced
Rebamipide 30 or 200 mg/kg/day p.o. in feed, BSSG 3 mg/day, vs placebo, preliminary results
  parameters tested including functional tests: significant improvement
Weighted score of α-synuclein, functional, permeability, inflammatory, olfactory, retinal tests and mortality, rebamipide treated group vs placebo
  Cumulative PD score, better as compared to the placebo group: more than 20%
